From patent publication US20240325341A1, “ANTI-BACTERIAL EFFECT OF HALOGENATED FLUORESCEINS AGAINST COLISTIN-RESISTANT GRAM-NEGATIVE BACTERIA” (priority 2023, published 2024) come the findings set out here.

What all share (format): cell-based
The test system of assay [1] is colistin-resistant Gram-negative bacteria. The conditions noted are these: under a fluorescent light.
Assay [2] deals with Acinetobacter baumannii (ATCC19606) colistin-resistant strain. Description: microbe, parasite or virus in culture.
Assay [3] deals with Pseudomonas aeruginosa (ATCC 27853) - intermediate colistin-resistant strain. Description: microbe, parasite or virus in culture.
Assay [4] deals with Proteus mirabilis urine strain WGLW4 colistin-resistant strain. Kind of assay: microbe, parasite or virus in culture. The settings on record: 24 h.
For assay [5], the system named is Escherichia coli (ATCC 35218) colistin-resistant strain. Kind of assay: microbe, parasite or virus in culture.
Assay [6] relates to Burkholderia cepacia genomovar III, LMG16656 colistin-resistant strain. Kind of assay: microbe, parasite or virus in culture. The conditions noted are these: broth dilution, 24 h, entry 25.
For assay [7], the system named is Burkholderia thailandensis E264 colistin-resistant strain. Kind of assay: microbe, parasite or virus in culture.
Assay [8] relates to Escherichia coli serotype O157 (TW07793) colistin-resistant strain. Description: microbe, parasite or virus in culture. The conditions noted are these: 24 h.
Assay [9] deals with Salmonella enterica subsp. enterica Typhimurium (BAA 2721) (Wild type). Kind of assay: MIC by broth dilution. The settings on record: 24 h. Background: Dilution methods test growth across graded concentrations, often in twofold steps.
In assay [10] the test system is Acinetobacter baumannii (ATCC19606). Description: MIC by broth dilution.
Assay [11] concerns Burkholderia multivorans CGD1 (wild type). Description: MIC by broth dilution. The settings on record: 24 h.
Assay [12] has as its system Pseudomonas aeruginosa MRSN 1380 (NR51522). Description: MIC by broth dilution. The settings on record: 24 h.
For assay [13], the system named is Salmonella enterica Pennsylvania, Serovar Typhimurium, Isolate 1 (NR4333) colistin-resistant strain. Kind of assay: microbe, parasite or virus in culture. The conditions noted are these: 24 h.
Assay [14] has as its system Pseudomonas aeruginosa MRSN 1380 (NR51522) colistin-resistant strain. Kind of assay: microbe, parasite or virus in culture. The conditions noted are these: 24 h.
In assay [15] the test system is Pseudomonas aeruginosa MRSN 1356 (NR51521). Kind of assay: MIC by broth dilution. The settings on record: 24 h.
Assay [16] relates to Salmonella enterica subsp. enterica Typhimurium (BAA 2721) intermediate colistin-resistant strain. Description: microbe, parasite or virus in culture. The conditions noted are these: 24 h.
The subject of assay [17] is E. coli ATCC35218 colistin^R. The conditions noted are these: 30 min; reference molecule at 10 mg/mL.
Assay [18] deals with Salmonella enterica Pennsylvania, Serovar Typhimurium, Isolate 1 (NR4333). Description: MIC by broth dilution. The settings on record: 24 h.
The subject of assay [19] is Burkholderia thailandensis E264 (Wild type). Description: microbe, parasite or virus in culture. The conditions noted are these: 24 h.
In assay [20] the test system is Klebsiella pneumoniae colistin-resistant strain. Kind of assay: microbe, parasite or virus in culture. The settings on record: Klebsiella pneumoniae, ATCC19606, 24 h.
In assay [21] the test system is Burkholderia cepacia genomovar III, LMG16656 (wild type). Kind of assay: microbe, parasite or virus in culture.
Assay [22] relates to Escherichia coli (ATCC 35218). Kind of assay: MIC by broth dilution.
The test system of assay [23] is Burkholderia multivorans CGD1 colistin-resistant strain. Kind of assay: microbe, parasite or virus in culture. The conditions noted are these: broth dilution, 24 h, entry 21.
The test system of assay [24] is Pseudomonas aeruginosa MRSN 1356 (NR51521) colistin-resistant strain. Description: microbe, parasite or virus in culture. The settings on record: 24 h.
Assay [25] concerns Proteus mirabilis urine strain WGLW4 (Wild type). Description: MIC by broth dilution. The conditions noted are these: 24 h.
Assay [26] has as its system Pseudomonas aeruginosa (ATCC 27853). Description: MIC by broth dilution.
For assay [27], the system named is Pseudomonas aeruginosa (ATCC 27853) - high colistin-resistant strain. Kind of assay: microbe, parasite or virus in culture.
The subject of assay [28] is Acinetobacter baumannii (ATCC BAA1800) colistin-resistant strain. Kind of assay: microbe, parasite or virus in culture.
Assay [29] deals with Serratia sp. strain Ag2 (Wild-type). Description: MIC by broth dilution.
Assay [30] concerns Klebsiella pneumoniae (ATCC 19606). Description: MIC by broth dilution. The conditions noted are these: Klebsiella pneumoniae, ATCC19606, 24 h, entry 9.
For assay [31], the system named is Acinetobacter baumannii (ATCC BAA1800). Kind of assay: MIC by broth dilution.
The subject of assay [32] is Klebsiella pneumoniae (CRE) CHS 67 (NR48569). Description: MIC by broth dilution. The conditions noted are these: 24 h.
Assay [33] relates to Serratia sp. strain Ag2 colistin-resistant strain. Description: microbe, parasite or virus in culture. The settings on record: 24 h.
Assay [34] relates to Escherichia coli serotype O157 (TW07793). Kind of assay: microbe, parasite or virus in culture. The settings on record: broth dilution, 24 h, entry 3.
The test system of assay [35] is Klebsiella pneumoniae (CRE) CHS 67 (NR48569) colistin-resistant strain. Kind of assay: microbe, parasite or virus in culture. The settings on record: 24 h.
Assay [36] has as its system Klebsiella pneumoniae (ATCC 19606) colistin-resistant strain. Description: microbe, parasite or virus in culture. The conditions noted are these: broth dilution, 24 h; entry 10.
Assay [37] deals with Klebsiella pneumoniae. Description: MIC by broth dilution. The conditions noted are these: 24 h, entry 9.
[38] abbreviates: Pseudomonas aeruginosa, ATCC27853, 24 h.

In brackets after ≈: the same amount, converted by molar mass. Where two headings read alike, the source gives them in different places. Bounds are passed on as bounds.

On to `O=C1OC2(c3cc(I)c(O)c(I)c3Oc3c2cc(I)c(O)c3I)c2c(Cl)c(Cl)c(Cl)c(Cl)c21` [RB, 4,5,6,7-tetrachloro-2′,4′,5′,7′-tetraiodo-fluorescein], for which the bactericidal activity in assay [1] was 0.05 to 6.25 µg/mL.

Take `C[C@@H](O)[C@H]1C(=O)N2C(C(=O)O)=C(S[C@@H]3CN[C@H](C(=O)N(C)C)C3)[C@H](C)[C@H]12` [Meropenem]: the MIC is above 100 mg/L in [2] (Acinetobacter baumannii, ATCC19606, 24 h); above 100 mg/L in [3] (setting [38]); above 200 mg/L in assay [4] (Proteus mirabilis); 25 mg/L (≈ 65.2 µM) in assay [5] (Escherichia coli, ATCC35218, 24 h); 100 mg/L (≈ 261 µM) in assay [6] (Burkholderia cepacia, LMG16656, read-out: MIC); above 100 mg/L in assay [7] (Burkholderia thailandensis, 24 h). For the same compound, the MIC was 12.5 mg/L (≈ 32.6 µM) in assay [8] (Escherichia coli); 3.1 mg/L (≈ 8.08 µM) in assay [9] (Salmonella enterica, entry 26, read-out: MIC); 100 mg/L (≈ 261 µM) in assay [10] (Acinetobacter baumannii, ATCC19606, 24 h, entry 5, read-out: MIC); 25 mg/L (≈ 65.2 µM) in assay [11] (Burkholderia multivorans, entry 20, read-out: MIC); 3.13 mg/L (≈ 8.16 µM) in [12] (Pseudomonas aeruginosa, entry 18, read-out: MIC); above 100 mg/L in assay [13] (Salmonella enterica). In addition, the MIC in assay [14] (Pseudomonas aeruginosa) was 100 mg/L (≈ 261 µM); in assay [15] (Pseudomonas aeruginosa, entry 16, read-out: MIC) it was above 100 mg/L; in assay [16] (Salmonella enterica), 6.25 mg/L (≈ 16.3 µM); in [18] (Salmonella enterica, entry 28, read-out: MIC) it was 1.6 mg/L (≈ 4.17 µM); in [19] (Burkholderia thailandensis) it was 12.5 mg/L (≈ 32.6 µM); in assay [20] it was above 100 mg/L. Further, the MIC was 25 mg/L (≈ 65.2 µM) in assay [21] (Burkholderia cepacia, LMG16656, 24 h); below 0.8 mg/L in [22] (Escherichia coli, ATCC35218, 24 h, entry 1, read-out: MIC); above 100 mg/L in [23] (Burkholderia multivorans, read-out: MIC); above 100 mg/L in [24] (Pseudomonas aeruginosa); above 200 mg/L in [25] (Proteus mirabilis, entry 30, read-out: MIC); above 100 mg/L in [26] (Pseudomonas aeruginosa, ATCC27853, 24 h, entry 13, read-out: MIC). The MIC is above 100 mg/L in [27] (setting [38]); above 100 mg/L in assay [28] (Acinetobacter baumannii, ATCCBAA1800, 24 h); 0.039 mg/L (≈ 0.102 µM) in assay [29] (Serratia, 24 h, entry 32, read-out: MIC); 4000 mg/L (≈ 10400 µM) in assay [29] (Table 1, 24 h); above 100 mg/L in [30]; above 100 mg/L in [31] (Acinetobacter baumannii, ATCCBAA1800, 24 h, entry 7, read-out: MIC). Moreover, the MIC was above 100 mg/L in assay [32] (Klebsiella pneumoniae, entry 11, read-out: MIC); 12.5 mg/L (≈ 32.6 µM) in [33] (Serratia); 1.6 mg/L (≈ 4.17 µM) in assay [34] (Escherichia coli, read-out: MIC); above 100 mg/L in assay [35] (Klebsiella pneumoniae). Moreover, the “reduction of strain (CFU)” value in [17] came to 0%.

Turning to Amikacin, the MIC in [2] (broth dilution, 24 h, entry 6) is above 100 mg/L; in assay [3] (broth dilution, 24 h, entry 14), above 100 mg/L; in [4] (broth dilution, entry 31), above 200 mg/L; in assay [5] (broth dilution, 24 h, entry 2), above 100 mg/L; in assay [6] it was above 200 mg/L; in [7], above 200 mg/L. For the same compound, the MIC in [8] (broth dilution, entry 4) was 25.0 mg/L; in [9] (entry 26) it was 1.6 mg/L; in assay [10] (24 h, entry 5), 16.0 mg/L; in assay [11] (entry 20) it was 200.0 mg/L; in assay [12] (entry 18) it was 64.0 mg/L; in [13] (broth dilution, entry 29), above 100 mg/L. Moreover, the MIC was above 100 mg/L in assay [14] (broth dilution, entry 19); 32.0 mg/L in assay [15] (entry 16); above 100 mg/L in assay [16] (broth dilution, entry 27); 1.6 mg/L in [18] (entry 28); 64.0 mg/L in [19] (broth dilution, entry 22); 64.0 mg/L in [36]. The MIC is above 100 mg/L in [21] (broth dilution, 24 h, entry 24); 3.1 mg/L in [22] (24 h, entry 1); above 200.0 mg/L in assay [23]; above 100 mg/L in [24] (broth dilution, entry 17); above 200 mg/L in [25] (entry 30); 32.0 mg/L in [26] (24 h, entry 13). The MIC in [27] (broth dilution, 24 h, entry 15) is above 200 mg/L; in [28] (broth dilution, 24 h, entry 8), above 100 mg/L; in assay [29] (24 h, entry 32), above 200 mg/L; in assay [37], 4.0 mg/L; in [31] (24 h, entry 7), 64.0 mg/L; in assay [32] (entry 11), 16.0 mg/L. In addition, the MIC in assay [33] (broth dilution, entry 33) was above 200 mg/L; in assay [34], 1.6 mg/L; in assay [35] (broth dilution, entry 12), above 100 mg/L. Further, the “reduction of strain (CFU)” value in assay [17] is “about 3.5%”.
